In ChEMBL document CHEMBL1201862, “PubChem BioAssay data set” (2004):
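Five concentrations, 48 hours, 96-well plates. Here, GI50 denotes the concentration required for 50% inhibition of growth.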 Activity calls are given as the source filed them. Cut-off read from the data, not from the text of the source: active = GI50 up to about 1.1 µM and inactive = higher.

What was measured:
Assay in all cases: NCI-60 cell line screen, 48 h
[1] = test system: ACHN
[2] = test system: CAKI-1
[3] = test system: EKVX
[4] = test system: HCT-116
[5] = test system: HL-60
[6] = test system: HOP-92
[7] = test system: KM12
[8] = test system: MDA-MB-435
[9] = test system: MDA-N
[10] = test system: NCI/ADR-RES
[11] = test system: OVCAR-4
[12] = test system: SF-539
[13] = test system: SK-MEL-28
[14] = test system: SW-620
[15] = test system: TK-10
[16] = test system: UACC-257
[17] = test system: UO-31
[18] = test system: A498
[19] = test system: NCI-H522
[20] = test system: RPMI-8226

Measured: GI50

CCCCCCCCCCCCCCCCCCNC(=S)N/C=C1/C(=O)C=C(C)OC1=O
inactive: [1] 22.9 µM | [2] 23.4 µM | [3] 20.6 µM | [4] 30.1 µM | [5] 3.31 µM | [6] 27.3 µM | [7] 16.6 µM | [8] 23.7 µM | [9] 36.4 µM | [10] 28.6 µM | [11] 23.7 µM | [12] 24.3 µM | [13] 32.4 µM | [14] 27.4 µM | [15] 19.2 µM | [16] 27.5 µM | [17] 16.9 µM

Nc1nc2cc(Cl)ccc2n1N
inactive: [18] > 100 µM | [1] > 100 µM | [2] > 100 µM | [3] > 100 µM | [4] > 100 µM | [5] > 100 µM | [7] > 100 µM | [8] > 100 µM | [9] > 100 µM | [19] > 100 µM | [20] > 100 µM | [12] > 100 µM | [13] > 100 µM | [14] > 100 µM | [15] > 100 µM | [16] > 100 µM | [17] > 100 µM

CC1C(c2ccc(Cl)cc2)c2cc3c(cc2OC1N1CCOCC1)OCO3 (configuration not stated)
inactive: [1] 35.3 µM | [2] 31.8 µM | [3] > 100 µM | [4] 95.1 µM | [7] > 100 µM | [8] 95.1 µM | [9] > 100 µM | [19] 46.3 µM | [10] > 100 µM | [20] 34.1 µM | [12] 45 µM | [13] > 100 µM | [14] > 100 µM | [15] > 100 µM | [16] 86.1 µM | [17] 54.3 µM

O=C(O)c1cccc(CN2CCCCC2)c1
inactive: [18] > 100 µM | [1] > 100 µM | [2] > 100 µM | [3] > 100 µM | [4] > 100 µM | [7] > 100 µM | [8] > 100 µM | [9] > 100 µM | [19] > 100 µM | [10] > 100 µM | [11] > 100 µM | [20] > 100 µM | [13] > 100 µM | [14] > 100 µM | [15] > 100 µM | [16] > 100 µM | [17] > 100 µM

O=C1CCCc2ccc3c(c21)CC1(Cc2ccccc2C1)C3
inactive: [18] 25.6 µM | [1] 12.2 µM | [3] 7.78 µM | [4] 23 µM | [6] 17 µM | [7] 38.9 µM | [8] 27 µM | [9] 19 µM | [19] 23.9 µM | [10] 50.6 µM | [11] 17.2 µM | [20] 16.9 µM | [12] 31.6 µM | [15] 69.5 µM | [16] 21.4 µM | [17] 50.1 µM

Cn1c(S)nc2c(Cl)cc(Cl)cc2c1=O
inactive: [1] > 100 µM | [2] 67.9 µM | [3] > 100 µM | [4] > 100 µM | [5] 18.2 µM | [6] 63.5 µM | [7] > 100 µM | [8] > 100 µM | [9] > 100 µM | [19] 44.1 µM | [10] > 100 µM | [11] > 100 µM | [12] 42.8 µM | [13] > 100 µM | [14] > 100 µM | [15] > 100 µM | [16] > 100 µM | [17] 64 µM

CN(C(=O)Cc1cc(Cl)c(Cl)cc1NC(=O)CCCN)[C@H]1CCCC[C@@H]1N1CCCC1
inactive: [18] 17.3 µM | [1] > 100 µM | [2] > 100 µM | [3] 45.1 µM | [4] 29.9 µM | [5] 22.4 µM | [7] 18.7 µM | [8] 16.4 µM | [9] 16.7 µM | [19] 15.8 µM | [10] > 100 µM | [11] 86.3 µM | [20] > 100 µM | [13] 17.1 µM | [14] 28.6 µM | [15] 57.8 µM | [16] 19.1 µM | [17] > 100 µM

CCN(CC)CCO/N=C1\CC[C@H]2[C@@H]3CC=C4C[C@@H](O)CC[C@]4(C)[C@H]3CC[C@]12C
inactive: [18] 18.5 µM | [1] 35.8 µM | [2] 14.5 µM | [3] 35 µM | [4] 15.6 µM | [5] 9.77 µM | [7] 17.8 µM | [8] 17.3 µM | [9] 23 µM | [19] 17.3 µM | [10] 26.1 µM | [11] 25.5 µM | [20] 16.9 µM | [12] 13.6 µM | [13] 15.7 µM | [14] 15.1 µM | [15] 27.6 µM | [16] 16.7 µM | [17] 15.8 µM

OCCOCCN1CCN(c2nc(N3CCCC3)c3nc(Cl)c(NCc4ccccc4)nc3n2)CC1
inactive: [1] 14 µM | [2] 16 µM | [3] 13.6 µM | [4] 12.8 µM | [5] 12.1 µM | [6] 12.9 µM | [7] 10.1 µM | [8] 11.7 µM | [9] 10.3 µM | [19] 15.4 µM | [10] 14.5 µM | [11] 15 µM | [20] 7.64 µM | [12] 24.8 µM | [13] 14.4 µM | [14] 17.7 µM | [15] 12.4 µM | [16] 14.1 µM | [17] 9.4 µM

CCOC(=O)/C(C(N)=O)=C(O)/C(O)=C/C(=O)c1ccc(Cl)cc1
inactive: [18] > 100 µM | [1] 20 µM | [2] 24.1 µM | [3] 25.9 µM | [4] 14.1 µM | [6] 21.8 µM | [7] 17.3 µM | [8] 23.1 µM | [9] 14.8 µM | [19] 16.2 µM | [10] 21.4 µM | [11] 34.4 µM | [20] 19.8 µM | [13] 24.8 µM | [14] 20.5 µM | [15] 8.63 µM | [16] 16 µM | [17] 18.6 µM

O=C1/C(=C/c2ccco2)NC(=S)N1CN1CCOCC1
inactive: [18] > 100 µM | [1] > 100 µM | [3] > 100 µM | [4] > 100 µM | [6] > 100 µM | [7] > 100 µM | [8] > 100 µM | [9] > 100 µM | [10] > 100 µM | [11] > 100 µM | [20] > 100 µM | [13] > 100 µM | [14] > 100 µM | [15] > 100 µM | [16] > 100 µM | [17] > 100 µM

CC1/C(=N/O)CC(c2ccccc2)N(N=O)C1c1ccccc1 (configuration not stated)
inactive: [1] > 100 µM | [2] > 100 µM | [3] > 100 µM | [4] > 100 µM | [5] > 100 µM | [6] > 100 µM | [7] > 100 µM | [8] > 100 µM | [9] > 100 µM | [19] > 100 µM | [10] > 100 µM | [11] > 100 µM | [20] > 100 µM | [12] > 100 µM | [13] > 100 µM | [14] > 100 µM | [15] > 100 µM | [16] > 100 µM | [17] > 100 µM

[N-]=[N+]=CC(=O)OCCCCl
inactive: [18] > 100 µM | [1] > 100 µM | [2] > 100 µM | [3] > 100 µM | [4] > 100 µM | [5] > 100 µM | [6] > 100 µM | [7] > 100 µM | [8] > 100 µM | [9] > 100 µM | [19] > 100 µM | [11] > 100 µM | [20] > 100 µM | [13] > 100 µM | [14] > 100 µM | [15] > 100 µM | [16] > 100 µM | [17] > 100 µM

COc1ccc(/C=C(\C#N)c2nc(-c3cc4ccccc4oc3=O)cs2)cc1
inactive: [1] 19 µM | [2] 76 µM | [3] 35 µM | [4] 32.3 µM | [5] > 100 µM | [6] 18.3 µM | [7] 24.3 µM | [8] 37.8 µM | [9] 44.5 µM | [19] 19.4 µM | [10] 27.2 µM | [11] 23.9 µM | [20] 42.9 µM | [12] 21 µM | [13] 27.5 µM | [14] 19.7 µM | [15] 26.2 µM | [16] 31.8 µM | [17] 23.2 µM

O=C1C=CC(=O)c2c(O)nc(CBr)nc21
inactive: [18] 82.6 µM | [1] > 100 µM | [2] > 100 µM | [3] > 100 µM | [4] 56.8 µM | [5] 14.9 µM | [7] 52 µM | [8] 30.4 µM | [9] 36.1 µM | [19] > 100 µM | [10] > 100 µM | [11] > 100 µM | [20] 97.9 µM | [12] > 100 µM | [13] > 100 µM | [16] > 100 µM | [17] > 100 µM

COC1=C(Br)[C@H](O)[C@@]2(C=C1Br)CC(C(=O)NCCCOc1c(Br)cc(C(O)CNC(C)=O)cc1Br)=NO2 (some centres not stated) [APLYSINAMISINE III]
inactive: [18] > 10 µM | [1] > 10 µM | [2] > 10 µM | [4] > 10 µM | [5] 2.19 µM | [7] > 10 µM | [8] 2.18 µM | [9] 2.11 µM | [19] 4.17 µM | [10] > 10 µM | [11] > 10 µM | [20] > 10 µM | [12] > 10 µM | [13] > 10 µM | [14] > 10 µM | [15] > 10 µM | [16] > 10 µM | [17] > 10 µM
